# Laboratory results: the supplement of paper PMC10307832
# Legend:
# Experiment in all cases: relative viability (nuclei count vs DMSO), 5 days (fraction); higher = more cells survive
# VX-11e = compound: CC1=CN=C(N=C1C2=CNC(=C2)C(=O)N[C@H](CO)C3=CC(=CC=C3)Cl)NC4=C(C=C(C=C4)F)Cl [VX-11e]
# Procedure, shortened: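 A plate was accepted only when its control CV was below 25% and the cells had doubled at least once. Viability is defined from nuclear counts as treated wells divided by vehicle wells, with the median taken across plates. That median covers lung cancer cell lines grown in 1536-well plates, dosed by pinning at five √10-spaced library-drug concentrations, and counted in MetaXpress from 4× Hoechst images after 5 days.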
# VX-11e + Tozasertib = compound: CC1=CN=C(N=C1C2=CNC(=C2)C(=O)N[C@H](CO)C3=CC(=CC=C3)Cl)NC4=C(C=C(C=C4)F)Cl [VX-11e] + Cc1cc(Nc2cc(N3CCN(C)CC3)nc(Sc3ccc(NC(=O)C4CC4)cc3)n2)n[nH]1 [Tozasertib] (partner 0.1 µM)
# Procedure, shortened: (§1)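 Relative viability equals treated-well nuclei counts divided by vehicle-well nuclei counts. Counts came from 4× images of lung cancer cell lines grown in 1536-well plates for 5 days after pin-tool dosing on the day after seeding. Dosing used one drug alone or a fixed anchor-drug dose plus five library-drug doses (not always all listed) in √10 steps, and values are medians of duplicate plates.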
# VX-11e + Vorinostat = compound: CC1=CN=C(N=C1C2=CNC(=C2)C(=O)N[C@H](CO)C3=CC(=CC=C3)Cl)NC4=C(C=C(C=C4)F)Cl [VX-11e] + O=C(CCCCCCC(=O)Nc1ccccc1)NO [Vorinostat] (partner 1 µM)
# Procedure, shortened: as §1
# VX-11e + AZD7762 = compound: CC1=CN=C(N=C1C2=CNC(=C2)C(=O)N[C@H](CO)C3=CC(=CC=C3)Cl)NC4=C(C=C(C=C4)F)Cl [VX-11e] + NC(=O)Nc1cc(-c2cccc(F)c2)sc1C(=O)N[C@H]1CCCNC1 [AZD7762] (partner 0.2 µM)
# Procedure, shortened: as §1
# VX-11e + Dasatinib = compound: CC1=CN=C(N=C1C2=CNC(=C2)C(=O)N[C@H](CO)C3=CC(=CC=C3)Cl)NC4=C(C=C(C=C4)F)Cl [VX-11e] + Cc1nc(Nc2ncc(C(=O)Nc3c(C)cccc3Cl)s2)cc(N2CCN(CCO)CC2)n1 [Dasatinib] (partner 0.075 µM)
# Procedure, shortened: as §1
# VX-11e + Trametinib = compound: CC1=CN=C(N=C1C2=CNC(=C2)C(=O)N[C@H](CO)C3=CC(=CC=C3)Cl)NC4=C(C=C(C=C4)F)Cl [VX-11e] + CC(=O)Nc1cccc(-n2c(=O)n(C3CC3)c(=O)c3c(Nc4ccc(I)cc4F)n(C)c(=O)c(C)c32)c1 [Trametinib] (partner 0.02 µM)
# Procedure, shortened: as §1
# VX-11e + Luminespib = compound: CC1=CN=C(N=C1C2=CNC(=C2)C(=O)N[C@H](CO)C3=CC(=CC=C3)Cl)NC4=C(C=C(C=C4)F)Cl [VX-11e] + CCNC(=O)c1noc(-c2cc(C(C)C)c(O)cc2O)c1-c1ccc(CN2CCOCC2)cc1 [Luminespib] (partner 0.01 µM)
# Procedure, shortened: as §1
# VX-11e + Pemetrexed = compound: CC1=CN=C(N=C1C2=CNC(=C2)C(=O)N[C@H](CO)C3=CC(=CC=C3)Cl)NC4=C(C=C(C=C4)F)Cl [VX-11e] + Nc1nc2[nH]cc(CCc3ccc(C(=O)N[C@@H](CCC(=O)O)C(=O)O)cc3)c2c(=O)[nH]1 [Pemetrexed] (partner 0.2 µM)
# Procedure, shortened: as §1
# VX-11e + Olaparib = compound: CC1=CN=C(N=C1C2=CNC(=C2)C(=O)N[C@H](CO)C3=CC(=CC=C3)Cl)NC4=C(C=C(C=C4)F)Cl [VX-11e] + O=C(c1cc(Cc2n[nH]c(=O)c3ccccc23)ccc1F)N1CCN(C(=O)C2CC2)CC1 [Olaparib] (partner 8 µM)
# Procedure, shortened: as §1
# VX-11e + OSI-027 = compound: CC1=CN=C(N=C1C2=CNC(=C2)C(=O)N[C@H](CO)C3=CC(=CC=C3)Cl)NC4=C(C=C(C=C4)F)Cl [VX-11e] + COc1cccc2cc(-c3nc([C@H]4CC[C@H](C(=O)O)CC4)n4ncnc(N)c34)[nH]c12 [OSI-027] (partner 0.5 µM)
# Procedure, shortened: as §1
# VX-11e + Phenformin = compound: CC1=CN=C(N=C1C2=CNC(=C2)C(=O)N[C@H](CO)C3=CC(=CC=C3)Cl)NC4=C(C=C(C=C4)F)Cl [VX-11e] + N=C(N)NC(=N)NCCc1ccccc1 [Phenformin] (partner 250 µM)
# Procedure, shortened: as §1
# VX-11e + Decitabine = compound: CC1=CN=C(N=C1C2=CNC(=C2)C(=O)N[C@H](CO)C3=CC(=CC=C3)Cl)NC4=C(C=C(C=C4)F)Cl [VX-11e] + Nc1ncn([C@H]2C[C@H](O)[C@@H](CO)O2)c(=O)n1 [Decitabine] (partner 2 µM)
# Procedure, shortened: as §1
# VX-11e + Palbociclib = compound: CC1=CN=C(N=C1C2=CNC(=C2)C(=O)N[C@H](CO)C3=CC(=CC=C3)Cl)NC4=C(C=C(C=C4)F)Cl [VX-11e] + CC(=O)c1c(C)c2cnc(Nc3ccc(N4CCNCC4)cn3)nc2n(C2CCCC2)c1=O [Palbociclib] (partner 0.5 µM)
# Procedure, shortened: as §1
cell line,measurement,setting,value
NCI-H522,relative viability,VX-11e; 0.04 µM,0.796
same,relative viability,VX-11e; 0.1265 µM,0.876
same,relative viability,VX-11e; 0.4 µM,0.738
same,relative viability,VX-11e; 1.265 µM,0.614
same,relative viability,VX-11e; 4 µM,0.666
same,relative viability,VX-11e + Tozasertib; first compound 0.04 µM,0.532
same,relative viability,VX-11e + Tozasertib; first compound 0.1265 µM,0.56
same,relative viability,VX-11e + Tozasertib; first compound 0.4 µM,0.553
same,relative viability,VX-11e + Tozasertib; first compound 1.265 µM,0.467
same,relative viability,VX-11e + Tozasertib; first compound 4 µM,0.503
same,relative viability,VX-11e + Vorinostat; first compound 0.04 µM,0.994
same,relative viability,VX-11e + Vorinostat; first compound 0.1265 µM,0.939
same,relative viability,VX-11e + Vorinostat; first compound 0.4 µM,0.736
same,relative viability,VX-11e + Vorinostat; first compound 1.265 µM,0.713
same,relative viability,VX-11e + Vorinostat; first compound 4 µM,0.751
same,relative viability,VX-11e + AZD7762; first compound 0.04 µM,0.812
same,relative viability,VX-11e + AZD7762; first compound 0.1265 µM,0.969
same,relative viability,VX-11e + AZD7762; first compound 0.4 µM,0.82
same,relative viability,VX-11e + AZD7762; first compound 1.265 µM,0.671
same,relative viability,VX-11e + AZD7762; first compound 4 µM,0.671
same,relative viability,VX-11e + Dasatinib; first compound 0.04 µM,0.647
same,relative viability,VX-11e + Dasatinib; first compound 0.1265 µM,0.849
same,relative viability,VX-11e + Dasatinib; first compound 0.4 µM,0.719
same,relative viability,VX-11e + Dasatinib; first compound 1.265 µM,0.72
same,relative viability,VX-11e + Dasatinib; first compound 4 µM,0.605
same,relative viability,VX-11e + Trametinib; first compound 0.04 µM,0.684
same,relative viability,VX-11e + Trametinib; first compound 0.1265 µM,0.773
same,relative viability,VX-11e + Trametinib; first compound 0.4 µM,0.618
same,relative viability,VX-11e + Trametinib; first compound 1.265 µM,0.645
same,relative viability,VX-11e + Trametinib; first compound 4 µM,0.589
same,relative viability,VX-11e + Luminespib; first compound 0.04 µM,1.23
same,relative viability,VX-11e + Luminespib; first compound 0.1265 µM,1.28
same,relative viability,VX-11e + Luminespib; first compound 0.4 µM,1.05
same,relative viability,VX-11e + Luminespib; first compound 1.265 µM,0.82
same,relative viability,VX-11e + Luminespib; first compound 4 µM,0.832
same,relative viability,VX-11e + Pemetrexed; first compound 0.04 µM,0.861
same,relative viability,VX-11e + Pemetrexed; first compound 0.1265 µM,0.936
same,relative viability,VX-11e + Pemetrexed; first compound 0.4 µM,0.962
same,relative viability,VX-11e + Pemetrexed; first compound 1.265 µM,0.76
same,relative viability,VX-11e + Pemetrexed; first compound 4 µM,0.59
same,relative viability,VX-11e + Olaparib; first compound 0.04 µM,0.588
same,relative viability,VX-11e + Olaparib; first compound 0.1265 µM,0.594
same,relative viability,VX-11e + Olaparib; first compound 0.4 µM,0.457
same,relative viability,VX-11e + Olaparib; first compound 1.265 µM,0.545
same,relative viability,VX-11e + Olaparib; first compound 4 µM,0.533
same,relative viability,VX-11e + OSI-027; first compound 0.04 µM,0.615
same,relative viability,VX-11e + OSI-027; first compound 0.1265 µM,0.683
same,relative viability,VX-11e + OSI-027; first compound 0.4 µM,0.556
same,relative viability,VX-11e + OSI-027; first compound 1.265 µM,0.613
same,relative viability,VX-11e + OSI-027; first compound 4 µM,0.572
same,relative viability,VX-11e + Phenformin; first compound 0.04 µM,0.609
same,relative viability,VX-11e + Phenformin; first compound 0.1265 µM,0.621
same,relative viability,VX-11e + Phenformin; first compound 0.4 µM,0.558
same,relative viability,VX-11e + Phenformin; first compound 1.265 µM,0.48
same,relative viability,VX-11e + Phenformin; first compound 4 µM,0.656
same,relative viability,VX-11e + Decitabine; first compound 0.04 µM,0.641
same,relative viability,VX-11e + Decitabine; first compound 0.1265 µM,0.648
same,relative viability,VX-11e + Decitabine; first compound 0.4 µM,0.648
same,relative viability,VX-11e + Decitabine; first compound 1.265 µM,0.599
same,relative viability,VX-11e + Decitabine; first compound 4 µM,0.573
same,relative viability,VX-11e + Palbociclib; first compound 0.04 µM,0.782
same,relative viability,VX-11e + Palbociclib; first compound 0.1265 µM,0.924
same,relative viability,VX-11e + Palbociclib; first compound 0.4 µM,0.861
same,relative viability,VX-11e + Palbociclib; first compound 1.265 µM,0.717
same,relative viability,VX-11e + Palbociclib; first compound 4 µM,0.733
